This note sets out measurements from patent publication US7160888B2, “[1,8]naphthyridin-2-ones and related compounds for the treatment of schizophrenia” (Warner Lambert Company LLC, priority 2003, dated 2007).

As a reminder, the melting point is the temperature, or range, at which the solid turns liquid. For orientation: Emax means the maximal effect, on the per cent scale that the assay sets.

One series addresses D2 receptor (Homo sapiens, UniProt P14416). The series can be described thus: [3H]Thymidine uptake assay for D2 intrinsic activity. In kind it is cell-based. Particulars: Table 1; test compound 1 μM; 1 μM Quinpirole = 100% intrinsic activity.

Sequence of D2 receptor (P14416 whole entry): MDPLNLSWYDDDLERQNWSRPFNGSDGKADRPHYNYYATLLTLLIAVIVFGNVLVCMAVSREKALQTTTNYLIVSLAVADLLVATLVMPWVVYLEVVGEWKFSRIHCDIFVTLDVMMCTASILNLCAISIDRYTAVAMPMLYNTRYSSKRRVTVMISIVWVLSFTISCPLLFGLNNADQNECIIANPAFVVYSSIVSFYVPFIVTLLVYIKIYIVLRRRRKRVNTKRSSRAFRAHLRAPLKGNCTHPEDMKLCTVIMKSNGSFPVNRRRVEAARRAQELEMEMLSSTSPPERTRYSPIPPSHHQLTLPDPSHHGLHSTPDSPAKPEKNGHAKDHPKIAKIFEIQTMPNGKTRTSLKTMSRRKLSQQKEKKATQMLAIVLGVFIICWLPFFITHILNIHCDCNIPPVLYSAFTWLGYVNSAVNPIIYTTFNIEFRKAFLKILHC
Experimental for D2 receptor: D2 intrinsic activity of title compounds of the Examples, below, was determined using the [^3H]thymidine uptake assay described below.
[^3H]Thymidine Uptake Assay for D2 Intrinsic Activity
Cells are serum deprived by washing twice with 200 μl of serum-free media. 90 μl serum-free media was added to each well. The plates ware incubated for two to three hours. 10 μl of serum-containing media, as a positive control, vehicle (serum-free media), negative control (an antagonist) or test compounds and standards (10 μl of a 10 μM solution for a final concentration of 1 μM) in serum-free media were added to wells. The plates are returned to the incubator. Eighteen hours later [^3H]thymidine is added (0.5 μCi/well in 10 μl of serum-free media) and the plates are returned to the incubator. […] The plates are returned to the incubator, once again. One hour later the assay is terminated by rapid filtration through Whatman GF/C glass fiber filters. Filters are washed four times with 500 ml of 50 mM Tris-HCl pH 7.0 buffer, for example, using a Brandel MLR-96T cell harvester. […] Intrinsic activity is defined as total uptake (1 μM Quinpirole) minus serum-free media (no uptake). Test compounds are compared to 1 μM Quinpirole (full DA agonist), which was classified as 100% intrinsic activity.

Molecule `CCOc1cccc(N2CCN(CCCCOc3ccc4c(n3)NC(=O)CC4)CC2)c1Cl` [Example A21, 7-{4-[4-(2-Chloro-3-ethoxy-phenyl)-piperazin-1-yl]-butoxy}-3,4-dihydro-1H-[1,8]naphthyridin-2-one] registered a melting point of 110 to 112 °C.
`CC(=O)c1c(Cl)cccc1N1CCN(CCCCOc2ccc3c(n2)NC(=O)CC3)CC1` [Example A28, 7-{4-[4-(2-Acetyl-3-chloro-phenyl)-piperazin-1-yl]-butoxy}-3,4-dihydro-1H-[1,8]naphthyridin-2-one] gave a melting point of 115 °C. At D2 receptor, the maximal response (Emax) at 1 µM worked out at 2%.
On the same counts, the results for `CC(=O)c1cccc(N2CCN(CCCCOc3ccc4c(n3)NC(=O)CC4)CC2)c1Cl` [Example A32, 7-{4-[4-(3-Acetyl-2-chloro-phenyl)-piperazin-1-yl]-butoxy}-3,4-dihydro-1H-[1,8]naphthyridin-2-one] are 138 to 139 °C and 7%.
On the same counts, the results for `O=C1CCc2ccc(OCCCCN3CCN(c4cccc5c4CCCC5=O)CC3)nc2N1` [Example A58, 7-{4-[4-(5-Oxo-5,6,7,8-tetrahydro-naphthalen-1-yl)-piperazin-1-yl]-butoxy}-3,4-dihydro-1H-[1,8]naphthyridin-2-one] are 169 to 170 °C and 48%.
For `CC(=O)c1cccc(N2CCN(CCCCOc3ccc4ccc(=O)[nH]c4n3)CC2)c1Cl` [Example B6, 7-{4-[4-(3-Acetyl-2-chloro-phenyl)-piperazin-1-yl]-butoxy}-1H-[1,8]naphthyridin-2-one] the same measures were 108 to 110 °C and 16%.
Consider `O=C1CCCc2c1cccc2N1CCN(CCCCOc2ccc3ccc(=O)[nH]c3n2)CC1` [Example B42, 7-{4-[4-(5-Oxo-5,6,7,8-tetrahydro-naphthalen-1-yl)-piperazin-1-yl]-butoxy}-1H-[1,8]naphthyridin-2-one], for which the melting point lay in the range of 158 to 160 °C. The Emax at 1 µM at D2 receptor is 37%.
For `O=c1ccc2ccc(CCCCCN3CCN(c4cccc(Cl)c4Cl)CC3)nc2[nH]1` [Example C20, 7-{5-[4-(2,3-Dichloro-phenyl)-piperazin-1-yl]-pentyl}-1H-[1,8]naphthyridin-2-one], the melting point lay within 176 to 178 °C.
`Cc1cc(=O)[nH]c2nc(OCCCCN3CCN(c4cccc(Cl)c4Cl)CC3)ccc12` [Example D1, 7-{4-[4-(2,3-Dichloro-phenyl)-piperazin-1-yl]-butoxy}-4-methyl-1H-[1,8]naphthyridin-2-one] had a melting point of 181 to 182 °C. The molecule further yielded an Emax at 1 µM at D2 receptor of 31%.
Turning to `Cc1cc(=O)[nH]c2nc(CCCCCN3CCN(c4cccc(Cl)c4Cl)CC3)ccc12` [Example D3, 7-{5-[4-(2,3-Dichloro-phenyl)-piperazin-1-yl]-pentyl}-4-methyl-1H-[1,8]naphthyridin-2-one], the melting point lay in the range of 195 to 196 °C. Also, on D2 receptor, the Emax at 1 µM was determined as 15%.
`Cc1cc2ccc(CCCCCN3CCN(c4cccc(Cl)c4Cl)CC3)nc2[nH]c1=O` [Example D5, 7-{5-[4-(2,3-Dichloro-phenyl)-piperazin-1-yl]-pentyl}-3-methyl-1H-[1,8]naphthyridin-2-one] gave a melting point of 157 to 158 °C. For the same molecule, the maximal effect (Emax) at 1 µM on D2 receptor was determined as 15%.
For `Cc1c(C)c2ccc(OCCCCN3CCN(c4cccc(Cl)c4Cl)CC3)nc2[nH]c1=O` [Example D7, 7-{4-[4-(2,3-Dichloro-phenyl)-piperazin-1-yl]-butoxy}-3,4-dimethyl-1H-[1,8]naphthyridin-2-one] the same measures were 161 to 163 °C and 15%.
On the same counts, the results for `Cc1c(C)c2ccc(CCCCCN3CCN(c4cccc(Cl)c4Cl)CC3)nc2[nH]c1=O` [Example D8, 7-{5-[4-(2,3-Dichloro-phenyl)-piperazin-1-yl]-pentyl}-3,4-dimethyl-1H-[1,8]naphthyridin-2-one] are 202 to 203 °C and 8%.
`Cc1cc2c(nc1OCCCCN1CCN(c3cccc(Cl)c3Cl)CC1)NC(=O)CC2` [Example E1, 7-{4-[4-(2,3-Dichloro-phenyl)-piperazin-1-yl]-butoxy}-6-methyl-3,4-dihydro-1H-[1,8]naphthyridin-2-one] yielded a melting point of 138 to 139 °C. For the same molecule, the Emax at 1 µM at D2 receptor stood at 32%.
For `Cc1cc2c(nc1OCCCCN1CCN(c3cccc4ccccc34)CC1)NC(=O)CC2` [Example E2, 6-Methyl-7-[4-(4-naphthalen-1-yl-piperazin-1-yl)-butoxy]-3,4-dihydro-1H-[1,8]naphthyridin-2-one] the same measures were 76 to 78 °C and 22%.
In the case of `O=C1NCc2ccc(OCCCCN3CCN(c4cccc(Cl)c4Cl)CC3)nc2N1` [Example F1, 7-{4-[4-(2,3-Dichloro-phenyl)-piperazin-1-yl]-butoxy}-3,4-dihydro-1H-pyrido[2,3-d]pyrimidin-2-one], the melting point is 166 to 167 °C. At D2 receptor, this molecule gave an Emax at 1 µM of 8%.
For `O=C1NCc2ccc(OCCCCN3CCN(c4cccc5ccccc45)CC3)nc2N1` [Example F2, 7-[4-(4-Naphthalen-1-yl-piperazin-1-yl)-butoxy]-3,4-dihydro-1H-pyrido[2,3-d]pyrimidin-2-one], the melting point lay in the range of 136 to 138 °C. Besides, the maximal effect (Emax) at 1 µM on D2 receptor came out at 30%.
At D2 receptor, `COC(=O)c1c(OCCCCN2CCN(c3cccc4ccccc34)CC2)ncc2c1NC(=O)CC2` [Example I11, 7-[4-(4-Naphthalen-1-yl-piperazin-1-yl)-butoxy]-2-oxo-1,2,3,4-tetrahydro-[1,6]naphthyridine-8-carboxylic acid methyl ester] returned a maximal response (Emax) at 1 µM of 19%.
Same read-out and setting: under `O=c1ccc2cnc(OCCCCN3CCN(c4cccc5c4CCCC5)CC3)cc2[nH]1` [Example I14, 7-{4-[4-(5,6,7,8-Tetrahydro-naphthalen-1-yl)-piperazin-1-yl]-butoxy}-1H-[1,6]naphthyridin-2-one] stands 24%; under `O=c1ccc2cnc(OCCCCN3CCN(c4cccc5c4CCC5)CC3)cc2[nH]1` [Example I15, 7-[4-(4-Indan-4-yl-piperazin-1-yl)-butoxy]-1H-[1,6]naphthyridin-2-one], 20%.
Molecule `O=c1ccc2cnc(OCCCCN3CCN(c4cccc5ccccc45)CC3)cc2[nH]1` [Example I16, 7-[4-(4-Naphthalen-1-yl-piperazin-1-yl)-butoxy]-1H-[1,6]naphthyridin-2-one] had a maximal effect (Emax) at 1 µM at D2 receptor of 27%.
Same read-out and setting: under `O=c1ccc2cnc(OCCCCN3CCN(c4cccc5ccc(F)cc45)CC3)cc2[nH]1` [Example I17, 7-{4-[4-(7-Fluoro-naphthalen-1-yl)-piperazin-1-yl]-butoxy}-1H-[1,6]naphthyridin-2-one] stands 32%; under `O=c1ccc2cnc(NCCCCN3CCN(c4cccc(Cl)c4Cl)CC3)cc2[nH]1` [Example I18, 7-{4-[4-(2,3-Dichloro-phenyl)-piperazin-1-yl]-butylamino}-1H-[1,6]naphthyridin-2-one], 54%.
On the same count and under the same terms, under `CC1(C)OC(=O)Nc2cc(CCCCCN3CCN(c4cccc(Cl)c4Cl)CC3)ncc21` [Example I19, 7-{5-[4-(2,3-Dichloro-phenyl)-piperazin-1-yl]-pentyl}-4,4-dimethyl-1,4-dihydro-pyrido[4,3-d][1,3]oxazin-2-one] stands 22%.
